According to BindingDB's records for doi:10.1021/jm00145a024 (1985):

Assay: Inhibitory binding constant in guinea pig brain homogenate was reported at Opioid receptor delta 1 at a temperature 25 degree Celsius labeled with [3H](D-Ala2-D-Leu5)-enkephalin (0.7 nM)

`O=C1c2ccc(O)c3c2C24CCN(CC5CC5)C1[C@]2(O)CCC(=O)[C@@H]4O3` (stereo partly specified) gave a Ki of 0.281 µM.
